Assay results: PMC10681007, “Targeted Degradation of XIAP is Sufficient and Specific to Induce Apoptosis in MYCN-overexpressing High-risk Neuroblastoma” (Cancer Research Communications, 2023)
Starred links: 1 amine or outer side, 2 acyl side, 3 side chain; linkers in the order of their positions; H or OH if unused. Positions of bridges follow the written chain, without caps; N, C: chain ends. Non-standard residues stand in square brackets, D forms with d. Residues, ends and D or L forms follow the SMILES beside them. Chains are numbered I, II in the order given. Hexamethylenediamine = C(CCCN[*:2])CCN[*:1]; Dip = N[C@H](C(=O)O)C(c1ccccc1)c1ccccc1; Chg = N[C@H](C(=O)O)C1CCCCC1; NMeA = CN[C@@H](C)C(=O)O

Columns and labels:
HS5 cells = assay: Apoptosis (cleaved PARP/caspase-3, Caspase-Glo 3/7); format: cell-based; conditions: 10 µmol/L
Experimental: (§1) The determination of caspase-3/7 levels as an indication for apoptosis activity was performed using a Caspase-Glo 3/7 assay kit from Promega according to manufacturer's instructions. Cells were seeded at 1 × 10^4 cells per well and treated with 10 µmol/L of IAP antagonists for various indicated timings, followed by bioluminescence measurement using luminescent plate reader, Tecan Infinite200 Pro. The activity of apoptosis was also measured by flow cytometry using the Dead Cell Apoptosis Kit with Annexin V FITC and PI (Thermo Fisher Scientific) according to manufacturer's instructions. Cells harvested from lentiviral infection were subjected to Annexin V (2.5 µL) and PI (40 ng/mL, 0.5 µL) staining, followed by flow cytometric analysis using BD LSRFortessa cell analyzer with excitation/emission spectra of 494 nm/518 nm for FITC and 535 nm/617 nm for PI.
(§2) FIGURE 2 Specific loss of XIAP expression, not c-IAP1, is required for mediating apoptosis in high-risk neuroblastoma cells. A, Summary of IAP antagonists’ efficacy in killing neuroblastoma cells. […] C, Graphical representation showing the fold change of caspase-3/7 activity relative to vehicle controls after treatment with 10 µmol/L of either A4, B3, or BV6 at indicated timings (data were expressed as mean ± SD of three independent experiments conducted in duplicates; *, P < 0.05). […]

CHP212 = assay: RealTime-Glo MT cell viability assay; format: cell-based, Human
Experimental: (§3) Cell viability was measured in real time using RealTime-Glo MT Cell Viability Assay as according to manufacturer's instructions from Promega. Cells were seeded at 1 × 10^4 cells per well and treated with a range of doses of indicated antagonists, followed by continuous bioluminescence reading every 24 hours for 3 days using luminescent plate reader, Varioskan (SkanIT software). IC50 was determined using GraphPad Prism software.
(§4) To determine their efficacy in neuroblastoma, a panel of neuroblastoma cell lines including neuroblastoma patient-derived cell lines and noncancerous normal tissue-derived cell lines were treated with increasing doses of each antagonist (0–100 µmol/L), followed by real-time measurement of cell viability every 24 for 72 hours.

NLF = assay: RealTime-Glo MT cell viability assay; format: cell-based, Human
Experimental: as §3, §4

IMR-32 = assay: RealTime-Glo MT cell viability assay; format: cell-based, Human
Experimental: as §3, §4

KELLY = assay: RealTime-Glo MT cell viability assay; format: cell-based, Human
Experimental: as §3, §4

[1] = system: NBL01-1116 patient-derived neuroblastoma cells; assay: RealTime-Glo MT cell viability assay; format: cell-based, Human
Experimental: as §3, §4

[2] = system: NBL-07-0317 patient-derived neuroblastoma cells; assay: RealTime-Glo MT cell viability assay; format: cell-based, Human
Experimental: as §3, §4

BE(2)-C = assay: RealTime-Glo MT cell viability assay; format: cell-based, Human
Experimental: as §3, §4

SK-N-AS = assay: RealTime-Glo MT cell viability assay; format: cell-based, Human
Experimental: as §3, §4

[3] = system: NBL27-0218A patient-derived neuroblastoma cells; assay: RealTime-Glo MT cell viability assay; format: cell-based, Human
Experimental: as §3, §4

SK-N-SH = assay: RealTime-Glo MT cell viability assay; format: cell-based, Human
Experimental: as §3, §4

NB1 = assay: RealTime-Glo MT cell viability assay; format: cell-based, Human
Experimental: as §3, §4

[4] = system: NBL16-0118 patient-derived neuroblastoma cells; assay: RealTime-Glo MT cell viability assay; format: cell-based, Human
Experimental: as §3, §4

BE(2)-C and KELLY cells = assay: Apoptosis (cleaved PARP/caspase-3, Caspase-Glo 3/7); format: cell-based, Human; conditions: 10 µmol/L
Experimental: as §1, §2

XIAP and c-IAP1 = assay: Immunoblot analysis of XIAP and c-IAP1 expression; format: cell-based, Human; conditions: 10 µmol/L
Excerpt: FIGURE 2 Specific loss of XIAP expression, not c-IAP1, is required for mediating apoptosis in high-risk neuroblastoma cells. A, Summary of IAP antagonists’ efficacy in killing neuroblastoma cells. The IAP antagonists were ranked on the basis of the average potency of killing (IC50) and specificity of killing toward only neuroblastoma cells: (i) A4, (ii) B3, (iii) BV6, (iv) LCL161, (v) CUDC-427, (vi) Debio 1143. B, Immunoblot analysis of c-IAP1, XIAP, PARP, and cleaved caspase-3 expression in neuroblastoma cell lines, BE(2)-C and KELLY, and noncancerous normal tissue cell line, HS5, after treatment with 10 µmol/L of either A4, B3, or BV6 at indicated timings (three independent replicates). C, Graphical representation showing the fold change of caspase-3/7 activity relative to vehicle controls after treatment with 10 µmol/L of either A4, B3, or BV6 at indicated timings (data were expressed as mean ± SD of three independent experiments conducted in duplicates; *, P < 0.05). D, Morphology of cells 48 hours posttreatment with 10 µmol/L of either A4, B3, or BV6. […]
Whole cell lysates harvested were lysed in EBC buffer (pH 8.0 of 50 mM Tris, 0.5% NP-40, 120 mM sodium chloride) containing protease inhibitors and protein concentration were quantified using the Bradford assay (Thermo Fisher Scientific). […]

CN[C@@H](C)C(=O)N[C@H](C(=O)N1CCC[C@H]1C(=O)N[C@H](C(=O)NCCCCCCNC(=O)[C@@H](NC(=O)[C@@H]1CCCN1C(=O)[C@@H](NC(=O)[C@H](C)NC)C1CCCCC1)C(c1ccccc1)c1ccccc1)C(c1ccccc1)c1ccccc1)C1CCCCC1 [BV6] (I: H-[NMeA][Chg]P[Dip] / II: H-[NMeA][Chg]P[Dip]; linker I:C-II:C via Hexamethylenediamine)
apoptosis (HS5 cells): significant apoptosis
IC50 (CHP212; CHP212, 24 hours): 10.4 µM
IC50 (CHP212; CHP212, 48 hours): 9.9 µM
IC50 (CHP212; CHP212, 72 hours): 9.3 µM
IC50 (NLF; 24 hours): 7.4 µM
IC50 (NLF; 48 hours): 3.8 µM
IC50 (NLF; 72 hours): 3.7 µM
IC50 (IMR-32; IMR-32, 24 hours): 7.4 µM
IC50 (IMR-32; IMR-32, 48 hours): 5.8 µM
IC50 (IMR-32; IMR-32, 72 hours): 4.3 µM
IC50 (KELLY; 24 hours): 13.5 µM
IC50 (KELLY; 48 hours): 12.9 µM
IC50 (KELLY; 72 hours): 10.1 µM
IC50 ([1]; NBL01-1116, 24 hours): 14.5 µM
IC50 ([1]; NBL01-1116, 48 hours): 9.3 µM
IC50 ([1]; NBL01-1116, 72 hours): 8.5 µM
IC50 ([2]; NBL-07-0317, 24 hours): 8.1 µM
IC50 ([2]; NBL-07-0317, 48 hours): 5.5 µM
IC50 ([2]; NBL-07-0317, 72 hours): 4.8 µM
IC50 (BE(2)-C; 24 hours): 21.2 µM
IC50 (BE(2)-C; 48 hours): 16.8 µM
IC50 (BE(2)-C; 72 hours): 16.5 µM
IC50 (SK-N-AS; 24 hours): 4.6 µM
IC50 (SK-N-AS; 48 hours): 3.2 µM
IC50 (SK-N-AS; 72 hours): 2.6 µM
IC50 ([3]; 24 hours): 5.9 µM
IC50 ([3]; 48 hours): 3.6 µM
IC50 ([3]; 72 hours): 2.6 µM
IC50 (SK-N-SH; 24 hours): 12.4 µM
IC50 (SK-N-SH; 48 hours): 10.5 µM
IC50 (SK-N-SH; 72 hours): 9.7 µM
IC50 (NB1; NB1, 24 hours): 7 µM
IC50 (NB1; NB1, 48 hours): 5.5 µM
IC50 (NB1; NB1, 72 hours): 3.8 µM
IC50 ([4]; NBL16-0118, 24 hours): 5.1 µM
IC50 ([4]; NBL16-0118, 48 hours): 2.8 µM
IC50 ([4]; NBL16-0118, 72 hours): 2.3 µM
apoptosis (PARP and caspase-3 cleavage, caspase-3/7 activity) (BE(2)-C and KELLY cells): minimal or no apoptosis
XIAP and c-IAP1 expression (immunoblot) (XIAP and c-IAP1; BE(2)-C and KELLY cells): loss of c-IAP1 expression with no change in XIAP expression
XIAP and c-IAP1 expression (immunoblot) (XIAP and c-IAP1; HS5 cells): loss of c-IAP1 expression with no changes in XIAP expression
